Source: the supplement of paper PMC10307832

Legend:
Assay in all cases: relative viability (nuclei count vs DMSO), 5 days (fraction); higher = more cells survive
Bemcentinib + OSI-027 = compound: Nc1nc(Nc2ccc3c(c2)CC[C@@H](N2CCCC2)CC3)nn1-c1cc2c(nn1)-c1ccccc1CCC2 [Bemcentinib] + COc1cccc2cc(-c3nc([C@H]4CC[C@H](C(=O)O)CC4)n4ncnc(N)c34)[nH]c12 [OSI-027] (partner 0.5 µM)
Method in brief: (§1)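 Nuclei were stained with Hoechst during a one-step fixation (final 0.05% Triton X-100, 1% formaldehyde, 1 ug/ml Hoechst) carried out 5 days after dosing, then counted on 4× images. The cells, lung cancer lines in 1536-well plates, had been dosed by pin tool the day after seeding with one drug alone or a fixed anchor-drug dose plus five library-drug doses (not always all listed) in √10 steps. Relative viability is the nuclei count in treated wells divided by that in vehicle wells, and each value is the median of duplicate plates.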

[1] = compound: CC1=CC=C(C=C1)C(=O)CN2C3=C(CCCC3)SC2=N [Pifithrin_alpha] + C[C@@H](Oc1cc(-c2cnn(C3CCNCC3)c2)cnc1N)c1c(Cl)ccc(F)c1Cl [Crizotinib] (partner 1 µM)
Method in brief: as §1

[2] = compound: CC1=CC=C(C=C1)C(=O)CN2C3=C(CCCC3)SC2=N [Pifithrin_alpha] + CC(=O)Nc1cccc(-n2c(=O)n(C3CC3)c(=O)c3c(Nc4ccc(I)cc4F)n(C)c(=O)c(C)c32)c1 [Trametinib] (partner 0.02 µM)
Method in brief: as §1

Axitinib + Tozasertib = compound: CNC(=O)c1ccccc1Sc1ccc2c(/C=C/c3ccccn3)n[nH]c2c1 [Axitinib] + Cc1cc(Nc2cc(N3CCN(C)CC3)nc(Sc3ccc(NC(=O)C4CC4)cc3)n2)n[nH]1 [Tozasertib] (partner 0.1 µM)
Method in brief: as §1

NCI-H650
relative viability (Bemcentinib + OSI-027; first compound 0.04 µM): 0.468
relative viability (Bemcentinib + OSI-027; first compound 0.1265 µM): 0.501
relative viability (Bemcentinib + OSI-027; first compound 0.4 µM): 0.582
relative viability (Bemcentinib + OSI-027; first compound 1.265 µM): 0.496
relative viability (Bemcentinib + OSI-027; first compound 4 µM): 0.512
relative viability ([1]; first compound 3.162 µM): 0.671
relative viability ([1]; first compound 10 µM): 0.659
relative viability ([1]; first compound 31.62 µM): 0.434
relative viability ([1]; first compound 100 µM): 0.743
relative viability ([2]; first compound 3.162 µM): 0.947
relative viability ([2]; first compound 10 µM): 0.978
relative viability ([2]; first compound 31.62 µM): 0.785
relative viability ([2]; first compound 100 µM): 0.985
relative viability (Axitinib + Tozasertib; first compound 0.005 µM): 0.714
relative viability (Axitinib + Tozasertib; first compound 0.01581 µM): 0.734
relative viability (Axitinib + Tozasertib; first compound 0.05 µM): 0.699
relative viability (Axitinib + Tozasertib; first compound 0.1581 µM): 0.693
relative viability (Axitinib + Tozasertib; first compound 0.5 µM): 0.78
